Laboratory results reported in ChEMBL document CHEMBL1135385, “New highly active taxoids from 9beta-dihydrobaccatin-9,10-acetals. Part 2” (Bioorg Med Chem Lett, 2002).
≈ marks a conversion by molar mass, not a printed value.

Tests used:
PC-6 [1] = test: Concentration required to obtain half of the maximal inhibition for cell growth in vincristine-resistant cell line expressing P-glycoprotein (PC-6/VCR29-9) was determined by using MTT assay when the cells were exposed to compound for 72 hr; format: functional; conditions: Homo sapiens, PC-6, 72 h
PC-12 = test: Concentration required to obtain half of the maximal inhibition for cell growth in human non-small cell lung cancer cell line(PC-12) was determined by using MTT assay when the cells were exposed to compound for 72 hr; conditions: PC-12, Lung
PC-6 [2] = test: Concentration required to obtain half of the maximal inhibition for cell growth in human small cell lung cancer(PC-6) was determined by using MTT assay when the cells were exposed to compound for 72 hr; format: functional; conditions: PC-6, Lung
[3] = Solubility (JP2 at pH 6.8); format: physicochemical; conditions: JP2, pH 6.8
[4] = Solubility (JP1 at pH 1.2); format: physicochemical; conditions: JP1, pH 1.2

CC(=O)O[C@@]12CO[C@@H]1CC[C@@]1(C)[C@@H]3OC(C)(C)O[C@@H]3C3=C(C)[C@@H](OC(=O)[C@H](O)[C@@H](NC(=O)OC(C)(C)C)c4ccncc4)C[C@@](O)([C@@H](OC(=O)c4ccccc4)[C@@H]12)C3(C)C
GI50 (PC-6 [1]): 3.84 ng/mL (≈ 4.6 nM) | GI50 (PC-12): 0.038 ng/mL (≈ 0.0455 nM) | GI50 (PC-6 [2]): 0.386 ng/mL (≈ 0.462 nM)

CC(=O)O[C@@]12CO[C@@H]1C[C@H](O)[C@@]1(C)[C@@H]3OC(C)(C)O[C@@H]3C3=C(C)[C@@H](OC(=O)[C@H](O)[C@@H](NC(=O)OC(C)(C)C)c4ccncc4)C[C@@](O)([C@@H](OC(=O)c4ccccc4)[C@H]21)C3(C)C
solubility [3]: 57 µg/mL (≈ 67000 nM) | GI50 (PC-6 [1]): 13.5 ng/mL (≈ 15.9 nM) | GI50 (PC-12): 0.665 ng/mL (≈ 0.781 nM) | solubility [4]: 333 µg/mL (≈ 391000 nM) | GI50 (PC-6 [2]): 0.38 ng/mL (≈ 0.447 nM)

CC(=O)O[C@@]12CO[C@@H]1CC[C@@]1(C)[C@@H]3OC(C)(C)O[C@@H]3C3=C(C)[C@@H](OC(=O)[C@H](O)[C@@H](NC(=O)OC(C)(C)C)c4ccccn4)C[C@@](O)([C@@H](OC(=O)c4ccccc4)[C@@H]12)C3(C)C
GI50 (PC-6 [1]): 0.538 ng/mL (≈ 0.644 nM) | GI50 (PC-12): 0.116 ng/mL (≈ 0.139 nM) | GI50 (PC-6 [2]): 0.145 ng/mL (≈ 0.174 nM)

CO[C@H]1C[C@H]2OC[C@@]2(OC(C)=O)[C@H]2[C@H](OC(=O)c3ccccc3)[C@]3(O)C[C@H](OC(=O)[C@H](O)[C@@H](NC(=O)OC(C)(C)C)c4ccncc4)C(C)=C([C@H]4OC(C)(C)O[C@H]4[C@]12C)C3(C)C
GI50 (PC-6 [1]): 38.1 ng/mL (≈ 44 nM) | GI50 (PC-12): 2.26 ng/mL (≈ 2.61 nM) | GI50 (PC-6 [2]): 0.229 ng/mL (≈ 0.265 nM)

CC(=O)O[C@@]12CO[C@@H]1C[C@@H]1C[C@@]13[C@@H]1OC(C)(C)O[C@@H]1C1=C(C)[C@@H](OC(=O)[C@H](O)[C@@H](NC(=O)OC(C)(C)C)c4ccncc4)C[C@@](O)([C@@H](OC(=O)c4ccccc4)[C@H]23)C1(C)C
GI50 (PC-6 [1]): > 100 ng/mL | GI50 (PC-12): 33.7 ng/mL (≈ 40.5 nM) | GI50 (PC-6 [2]): 7.03 ng/mL (≈ 8.44 nM)

CC(=O)O[C@@]12CO[C@@H]1CC[C@@]1(C)[C@@H]3OC(C)(C)O[C@@H]3C3=C(C)[C@@H](OC(=O)[C@H](O)[C@@H](NC(=O)OC(C)(C)C)c4ccccc4)C[C@@](O)([C@@H](OC(=O)c4ccccc4)[C@@H]12)C3(C)C
GI50 (PC-6 [1]): 2.91 ng/mL (≈ 3.49 nM) | GI50 (PC-12): 0.151 ng/mL (≈ 0.181 nM) | GI50 (PC-6 [2]): 0.332 ng/mL (≈ 0.398 nM)

CC(=O)O[C@@]12CO[C@@H]1C[C@@H](F)[C@@]1(C)[C@@H]3OC(C)(C)O[C@@H]3C3=C(C)[C@@H](OC(=O)[C@H](O)[C@@H](NC(=O)OC(C)(C)C)c4ccncc4)C[C@@](O)([C@@H](OC(=O)c4ccccc4)[C@H]21)C3(C)C
GI50 (PC-6 [1]): 3.87 ng/mL (≈ 4.54 nM) | GI50 (PC-12): 0.13 ng/mL (≈ 0.152 nM) | GI50 (PC-6 [2]): 0.266 ng/mL (≈ 0.312 nM)

CC(=O)O[C@@]12CO[C@@H]1C[C@H](O)[C@@]1(C)C(=O)[C@H](O)C3=C(C)[C@@H](OC(=O)[C@H](O)[C@@H](NC(=O)OC(C)(C)C)c4ccccc4)C[C@@](O)([C@@H](OC(=O)c4ccccc4)[C@H]21)C3(C)C.O.O.O [DOCETAXEL]
solubility [3]: < 4 µg/mL | GI50 (PC-6 [1]): 135 ng/mL | GI50 (PC-12): 42.2 ng/mL | solubility [4]: < 4 µg/mL | GI50 (PC-6 [2]): 1.48 ng/mL

CC(=O)O[C@H]1C(=O)[C@@]2(C)[C@H]([C@H](OC(=O)c3ccccc3)[C@]3(O)C[C@H](OC(=O)[C@H](O)[C@@H](NC(=O)c4ccccc4)c4ccccc4)C(C)=C1C3(C)C)[C@]1(OC(C)=O)CO[C@@H]1C[C@@H]2O [PACLITAXEL]
solubility [3]: < 4 µg/mL | solubility [4]: < 4 µg/mL
